The results in this text go back to paper PMC9780888, “4-Isobutylmethcathinone—A Novel Synthetic Cathinone with High In Vitro Cytotoxicity and Strong Receptor Binding Preference of Enantiomers” (Pharmaceuticals, 2022).

Structures can show the parent of a compound that is named as a salt.

Type in all cases: cell-based, human
In one test the test system is 5637. Briefly: WST-1 viability assay, 5637 cells. Conditions: 5637, 72 h incubation, WST-1, four replicates. The method, then: (§1) Based on the novelty of the IMBcat compound, we aimed to evaluate its in vitro cytotoxicity in selected model cell lines as well as to determine the toxicity of the IBMcat enantiomers, since both the chemical structure and chirality of compounds could play a role in their bioactivity (Table 2). The cytotoxic profile of the IBMcat was determined by a WST-1 viability assay after 72-h treatment. For this purpose, cell lines derived from distinct tissues, often affected by NPSs, were chosen, i.e., cells of kidney, hepatic, neural, urinary, and intestinal origin as well as keratinocytes and primary fibroblasts (HEK 293T, Hep G2, HMC-3, SH-SY5Y, 5637, CaCo-2, HaCaT, MRC-5, and BJ, respectively). The cytotoxicity of IBMcat and its enantiomers was concentration- and cell-line dependent, the IC50 values, which were in the micromolar range, are given in Table 2. […] This was followed by embryonic kidney cells HEK 293T (immortalized), in which the toxicity ranged between a concentration of 123 and 192 µM.
(§2) In this study, the following cell lines were used: HEK 293T, Hep G2, HMC-3, SH-SY5Y, 5637, CaCo-2, HaCaT, MRC-5, BJ, and L929. […] The selected cell lines were chosen so that not only primary noncancerous cells are evaluated but also cells derived from tissues, which are the most often affected by novel synthetic drugs, i.e., kidney, liver, urinary bladder, and nervous tissue. […]
(§3) The cytotoxicity of IBMCat was evaluated in vitro by using a WST-1 viability assay (Sigma-Aldrich, Saint Louis, MO, USA) based on the transformation of a tetrazolium salt into colored formazan in metabolically active cells. […] After 72 h of additional incubation of the cells, their viability was determined by WST-1. […] The cells were incubated for 2 h, after which absorbance of the raised formazan was measured spectrophotometrically at 450 nm (reference wavelength of 630 nm) using a UV-Vis spectrometer (Bio-Rad Laboratories, Hercules, CA, USA). […] The half-maximal inhibitory concentrations (IC50) were calculated from the measured dose–response curves by AAT Bioquest.
A general note: Tetrazolium assays rely on reduction of a dye to a coloured formazan, in cell work by metabolically active cells.

The next test has as its system Hep G2. In words: WST-1 viability assay, Hep G2 cells. The following applies: Hep G2, 72 h incubation, WST-1, four replicates. The method, then:
as §1, §2, §3

Another test deals with SH-SY5Y. Briefly: WST-1 viability assay, SH-SY5Y cells. The following applies: 72 h incubation, WST-1, four replicates. The method, then:
as §1, §2, §3

One may read the IC50 as the concentration that gives 50% inhibition. A low value points to inhibition by little substance. Consider `CN[C@H](C)C(=O)c1ccc(CC(C)C)cc1` [R-IBMCat], for which the IC50 in the test with 5637 is 20 ± 1 µM; with Hep G2, 49 ± 1 µM; in the test on SH-SY5Y it was 52 ± 4 µM.
As for `CNC(C)C(=O)c1ccc(CC(C)C)cc1.Cl` (stereo not drawn) [IBMcat, 4-isobutylmethcathinone hydrochloride], the IC50 in the test on 5637 (Homo sapiens) came to 18 ± 1 µM; in the test on Hep G2 (Homo sapiens, HepG2), 52 ± 7 µM; with SH-SY5Y (Homo sapiens), 44 ± 5 µM.
As to `CN[C@@H](C)C(=O)c1ccc(CC(C)C)cc1` [S-IBMCat, (S)-4-isobutylmethcathinone hydrochloride], the IC50 with 5637 (Homo sapiens) turned out to be 21 ± 4 µM; in the test on Hep G2 (Homo sapiens, HepG2), 46 ± 9 µM; with SH-SY5Y (Homo sapiens) it was 50 ± 1 µM.
